Like-named read-outs stand apart in the source and are kept apart here.
Key:
[1] = molecular target: T1, Langerin extracellular domain (ECD) (Homo sapiens, UniProt Q9UJ71); experiment: 19F R2-filtered NMR reporter displacement assay with Langerin; assay type: binding; settings: for Ki: 19F R2-filtered NMR, 0.1 mM reporter ligand 24, pH 7.8, 25 °C
T1 construct: the trimeric Langerin extracellular domain (ECD) was expressed insolubly in E; made in house
Procedure: (§1) Receptor Expression and Purification
General remarks. Codon-optimized genes for the expression of Langerin and DC-SIGN in E. coli were purchased from GenScript and Life Technologies, respectively. All growth media or chemicals used for receptor expression and purification were purchased from Carl Roth if not stated otherwise.
Langerin extracellular domain. Expression and purification were conducted as previously published14. Briefly, the trimeric Langerin extracellular domain (ECD) was expressed insolubly in E. coli BL21* (DE3) (Invitrogen). Following enzymatic cell lysis, inclusion bodies were harvested and subsequently solubilized. The sample was centrifuged and the Langerin ECD was refolded overnight via rapid dilution. Next, the sample was dialyzed overnight, centrifuged and purified via mannan-agarose affinity chromatography (Sigma Aldrich). For 19F R2-filtered NMR and lipid-enzyme-linked lectin assay (Lipid-ELLA) experiments, the buffer was exchanged to 25 mM Tris with 150 mM NaCl and 5 mM CaCl2 at pH 7.8 using 7 kDa size-exclusion desalting columns (Thermo Scientific). For […]
D2O, 150 mM NaCl and 5 mM CaCl2 at pH 7. The concentration of Langerin ECD was determined via UV spectroscopy (A280, 0.1% = 2.45). Purity and monodispersity of Langerin ECD samples were analyzed via SDS PAGE and DLS. […]
General remarks. 19F R2-filtered NMR experiments were conducted on a PremiumCompact 600 MHz spectrometer (Agilent). Spectra were processed in MestReNova and data analysis was performed with OriginPro 13, 15. Experiments with the Langerin ECD were performed at a receptor concentration of 50 μM in 25 mM Tris with 10% D2O, 150 mM NaCl and 5 mM CaCl2 at pH 7.8 and 25° C. […]
10% D2O, 150 mM NaCl and 5 mM CaCl2 at pH 7.0 and 25°C. TFA served as an internal reference at a concentration of 50 μM. Apparent relaxation rates R2,obs for the reporter ligand were determined using the CPMG pulse sequence as previously published3-5. […]
(§2) KI determination. KI values were determined as previously published for Langerin3. Briefly, titration experiments were conducted at a concentration of 0.1 mM of reporter ligand 24 at five competitor concentrations [I]T. Samples were prepared via serial dilution. For the acids GlcNS, GlcNAc-6-OS and GlcNS-6-OS the pH values were monitored and adjusted to 7.8 if necessary.
(§3) General remarks. 15N HSQC NMR experiments were conducted on an Ascend 700 MHz spectrometer (Bruker)16. Spectra were processed in NMRPipe17. Data analysis was performed using CCPN Analysis, MatLab and OriginPro15, 18-19. Experiments with the Langerin CRD were performed at a receptor concentration of 100 μM in 25 mM HEPES with 10% D 2O, 150 mM NaCl and 5 mM CaCl2 at pH 7.8 and 25° C. DSS-d6 served as an internal reference at a concentration of 100 μM. Spectra were referenced via the internal spectrometer reference. Spectra were acquired with 128 increments and 32 scans per increments for 150 μl samples in 3 mm sample tubes. The relaxation delay d1 was set to 1.4 s and the acquisition time tacq was set to 100 ms. The W5 Watergate pulse sequence was used for solvent suppression20. The used resonance assignment for the Langerin CRD has been published […]
(§4) KD determination. KD values were determined in titration experiments at six ligand concentrations [L]T. Samples were prepared via serial dilution. Chemical shift perturbations CSPs for Langerin CRD resonances in the fast or fast-to-intermediate exchange regime observed upon titration with ligand were calculated via Equation 121.

Langerin CRD = molecular target: T2, Langerin CRD (Homo sapiens, UniProt Q9UJ71); experiment: 15N HSQC NMR titration, KD determination; assay type: binding
T2 construct: made in house
T2 sequence (Q9UJ71 202-320 limits assumed): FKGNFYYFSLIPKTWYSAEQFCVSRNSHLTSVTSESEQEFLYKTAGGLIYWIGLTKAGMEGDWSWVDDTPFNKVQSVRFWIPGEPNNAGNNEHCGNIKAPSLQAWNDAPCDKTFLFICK
Procedure: as §1
General remarks. Codon-optimized genes for the expression of Langerin and DC-SIGN in E. coli were purchased from GenScript and Life Technologies, respectively. All growth media or chemicals used for receptor expression and purification were purchased from Carl Roth if not stated otherwise. […]
Langerin and DC-SIGN carbohydrate recognition domain. Expression and purification were conducted as previously published14. Briefly, the monomeric 15N-labeled Langerin and DC-SIGN carbohydrate recognition domains (CRDs) were expressed insolubly in E. coli BL21* (DE3) (Invitrogen). Following enzymatic cell lysis, inclusion bodies were harvested and subsequently solubilized. The sample was centrifuged and the Langerin and DC-SIGN CRDs were refolded overnight via rapid dilution. Next, the sample was dialyzed overnight, centrifuged and purified via StrepTactin affinity chromatography (Iba). After an additional dialysis step overnight, the sample was centrifuged and the buffer was exchanged to 25 mM HEPES with 150 mM NaCl at pH 7.0 using 7 kDa size-exclusion desalting columns (Thermo Scientific) for 19F R2-filtered and 15N HSQC NMR experiments. The concentration of Langerin and DC -SIGN CRDs was determined via UV spectroscopy (A280, 0.1% = 3.19 and A280, 0.1% = 2.98). Purity and monodispersity of Langerin and DC - SIGN CRD samples were analyzed via SDS PAGE and DLS. […]
as §2, §3, §4
A standard deviation σ of 0.02 ppm was previously determined for the measurement of chemical shifts in 15N HSQC NMR experiments with the Langerin CRD1. Accordingly, only assigned resonances that […]
for the determination of KD values via Equation 2 in a global two parameter fit21. Standard errors were derived directly from the fitting procedures.
Δv0.5 larger than 10 Hz upon titration in either the 1H or the 15N dimension were not considered for the determination of KD values. CSPmax represents the CSP value observed upon saturation of the binding […]

[2] = calculated utilizing the KI value determined for 21
[3] = CSPs of fast-exchanging resonances, read-out: KD, Langerin (KD,fast)
[4] = from integrals V of resonances in slow exchange, read-out: KD, Langerin (KD,slow)

T1 sequence (Q9UJ71 65-328 limits assumed): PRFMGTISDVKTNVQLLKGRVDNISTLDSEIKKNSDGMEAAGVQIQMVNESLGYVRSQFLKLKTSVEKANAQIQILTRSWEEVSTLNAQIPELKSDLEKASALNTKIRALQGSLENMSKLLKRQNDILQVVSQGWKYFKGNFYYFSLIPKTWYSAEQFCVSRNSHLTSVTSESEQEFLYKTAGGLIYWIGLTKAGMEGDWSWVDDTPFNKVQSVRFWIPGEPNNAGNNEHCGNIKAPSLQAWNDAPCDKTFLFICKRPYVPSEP

`CC(=O)NCCO[C@H]1O[C@H](CO)[C@@H](O)[C@H](O)[C@@H]1O` [compound 21] was tested, and the Ki [1] was 10000 ± 1000 µM, the “Relative potency, Langerin” value [1, 2] was 1.0 and the Kd (Langerin CRD; [3]) was 12000 ± 1000 µM.

For `CC(=O)NCCO[C@@H]1O[C@H](CO)[C@@H](O)[C@H](O)[C@H]1NS(=O)(=O)c1ccc(C)cc1` [compound 16], the Ki [1] was 240 ± 30 µM, the “Relative potency, Langerin” value [1, 2] was 42 and the “affinity increase over Man-based reference molecule 21” value ([1]; from KI values, Langerin, b47 words it as over natural glycans) was 42 fold. It also gave a Kd (Langerin CRD; [3]) of 230 ± 70 µM and a Kd (Langerin CRD; [4]) of 300 ± 100 µM.

In the case of `Cc1ccc(S(=O)(=O)N[C@H]2C(O)O[C@H](CO)[C@@H](O)[C@@H]2O)cc1` (some centres unmarked) [compound 2], the Ki [1] is reported as 320 ± 50 µM, the “Relative potency, Langerin” value [1, 2] is reported as 31 and the “Relative potency, Langerin” value ([1]; calculated utilizing the KI value determined for GlcNAc) is reported as 13. The “affinity increase over GlcNAc” value ([1]; from KI values, Langerin) was 13 fold, the Kd (Langerin CRD; [3]) was 460 ± 40 µM and the Kd (Langerin CRD; [4]) was 500 ± 200 µM.

Source: paper PMC6535779, “A Specific, Glycomimetic Langerin Ligand for Human Langerhans Cell Targeting” (ACS Central Science, 2019)
